Assay results as given in PMC8947478, “Novel, First-in-Human, Oral PCLX-001 Treatment in a Patient with Relapsed Diffuse Large B-Cell Lymphoma” (Current Oncology, 2022).
“Also recorded” adds a separate entry of the source. Read-outs that look alike come from different tables or passages of the source.

Key:
[1] = Pharmacokinetic analysis of plasma after oral PCLX-001 (UHPLC-MS, two-compartment model); format: in vivo, human; conditions: patient
Procedure: The primary pharmacokinetic analysis endpoints were:
Tmax is the time at which the maximum plasma concentration of PCLX-001 is achieved.
Cmax is the maximum plasma concentration of PCLX-001.
The patient was dosed with oral doses of PCLX-001 20 mg. After dosing, the blood samples (3 mL volume) were serially collected into heparinized tubes from a right forearm butterfly cannula. All blood fluid specimens were frozen and later assayed using a validated UHPLC-MS detection method.
PK Solver 2.0 freeware (https://www.boomer.org/boomer/software/pksolver.zip; accessed 26 November 2021) was used to determine the single dose pharmacokinetic parameters using a two-compartment model. The terminal phase rate constant (λz) was estimated by applying exponential linear regression to the concentrations in the terminal phase, and the apparent terminal half-life (t 1/2) was estimated as 0.693/λz. The area under the concentration (AUC) vs. time curve from the time of injection to the last (Clast) measured concentration (AUC0-tlast) was calculated. […] Oral body clearance (CLoral) was calculated as the ratio of the dose to the AUC0–∞. The area under the first moment concentration vs. time curve (AUMC) was estimated as the sum of the area under the C × t vs. t curve from time zero to Clast, plus the ratios of Clast × t/λz and Clast/λz 2. The mean residence time (MRT) was calculated as the ratio of AUMC to AUC0–∞). The apparent volume of distribution of steady-state (Vdss) was calculated as the product of CL × MRT.

[2] = tested on: T cells, B cells, and monocyte population; assay: Flow cytometry of live PBMC populations in the treated patient; format: in vivo, human
Procedure: (§1) Peripheral blood was collected from the patient at each sampling point (Screen, Day 1, and Day 28 of treatment) by venipuncture according to normal phlebotomy practice in 2 × 8 mL BD Vacutainer® CPT™ Tubes. Samples were immediately mixed by gentle inversion 10 times and process for PBMC isolation within 1 h. After centrifugation (1800× g for 20 min) at room temperature (18–25 °C) in a swinging bucket rotor (swing-out head), the mononuclear cells and platelets (referred to as PBMC) were carefully collected as the whitish layer just above the polyester gel and under the plasma layer, transferred into 9 mL freezing media (8 mL Fetal Bovine Serum and 1 mL DMSO), and stored at −70 °C or below until flow cytometry analysis.
(§2) PBMC were recovered by centrifugation (400× g for 5 min), washed in RPMI culture media, resuspended in PBS, and prepared for FACS analysis. PBMC were first labeled with Zombie Aqua™ Fixable Viability kit (1/100, 20 min at 4 °C; BioLegend, San Diego, CA, USA) for exclusion of dead cells, blocked with Human TruStain FcX Fc receptor blocking solution (5/100, 10 min at room temperature, BioLegend), then stained for extracellular markers using antibodies ECD-CD3 (clone UCHT1) and PE-Cy7-CD4 (clone SFCI12T4D11) from Beckman Coulter (Missaugua, ON, Canada) PerCp-Cy5.5-CD8 (SK-1) and BV-785CD19 (clone HIB19) from BioLegend, and PE-CF594-CD14 (clone MΦPG) from BD Bioscience (Mississauga, ON, Canada) for 20 min at 4 °C. The cells were then fixed and permeabilized using the eBioscience Intracellular Fixation and Permeabilization buffer set (Invitrogen, Mississauga, ON, Canada) and stained for intracellular markers AF-488-HGAL (clone 1H1-A7, eBioscience), AF-488-Lyn (Lyn-01, ab1890, Abcam, Cambridge, UK), and homemade monoclonal antibodies AF-700-NMT1(clone 6F8D5) and APC-NMT2 (clone 6C5E8), as previously described, in parallel with relevant isotype controls for at least 30 min at 4 °C. Prior to applying in the test, intracellular antibodies were first labeled with different fluorochromes using Lightning-Link conjugation kits (Abcam) and titrated to achieve the best concentration. Finally, samples were acquired on a Fortessa X-20 flow cytometer (BD Bioscences, Faculty of Medicine and Dentistry Flow Cytometry Facility, University of Alberta). Data were analyzed using FlowJo software (TreeStar, Ashland, OR, USA, version 10.8).

HGAL [3] = assay: Flow cytometry of intracellular HGAL level in PBMC populations; format: in vivo, human
Procedure: as §1, §2

Lyn [4] = assay: Flow cytometry of intracellular Lyn level in PBMC populations; format: in vivo, human
Procedure: as §1, §2

NMT2 = molecular target: T1, NMT2 (Homo sapiens, UniProt O60551); assay: Flow cytometry of intracellular NMT2 level in PBMC populations; format: in vivo
T1 construct: homemade monoclonal antibodies AF-700-NMT1(clone 6F8D5) and APC-NMT2 (clone 6C5E8); endogenous in cells; host or cells: patient peripheral blood mononuclear cells (CD4+, CD8+, CD19+, CD14+ populations)
T1 sequence (O60551 1-498): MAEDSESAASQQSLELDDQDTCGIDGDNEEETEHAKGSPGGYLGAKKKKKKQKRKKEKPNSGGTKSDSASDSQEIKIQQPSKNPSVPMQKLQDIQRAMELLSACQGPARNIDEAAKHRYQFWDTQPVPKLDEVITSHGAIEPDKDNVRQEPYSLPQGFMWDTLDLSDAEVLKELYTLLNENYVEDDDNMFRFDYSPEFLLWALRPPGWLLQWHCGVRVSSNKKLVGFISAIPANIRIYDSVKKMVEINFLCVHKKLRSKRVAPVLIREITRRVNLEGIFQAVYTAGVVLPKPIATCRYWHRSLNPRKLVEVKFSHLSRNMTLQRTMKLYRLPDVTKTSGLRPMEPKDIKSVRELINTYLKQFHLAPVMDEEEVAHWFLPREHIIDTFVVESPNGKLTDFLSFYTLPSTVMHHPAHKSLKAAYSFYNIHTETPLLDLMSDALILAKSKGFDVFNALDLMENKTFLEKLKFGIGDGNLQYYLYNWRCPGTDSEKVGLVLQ
Procedure: as §1, §2

[5] = Toxicity assessment in phase I trial (CTCAE version 5.0, DLT); format: in vivo, human; conditions: patient, 20 mg oral daily
Procedure: The subject was assessed for toxicity using daily diary entries, clinical assessments at baseline, day 8, day 15, day 22, and day 28. Dose-limiting toxicities (DLTs) were defined as the following cycle 1 CTCAE version 5.0 adverse events: Gr 4 platelets, Gr ≥ 3 platelets with bleeding and/or transfusions, Gr 4 ANC for ≥ 7 days, Gr ≥ 3 febrile neutropenia, and Gr ≥ 3 non-hematological toxicity.

[6] = tested on: relapsed diffuse large B-cell lymphoma; assay: Efficacy assessment by imaging (Lugano classification criteria); format: in vivo, human; conditions: patient, 20 mg oral daily, CT on day 29
Description: The subject had baseline cross-sectional and PET imaging. Protocol-defined imaging was CT every 2 cycles and PET every 6 cycles or as clinically indicated. Evaluation of response was by the Lugano classification criteria for the evaluation of non-Hodgkin lymphoma.

[7] = animal models; cited from earlier work
kinase = tested on: kinase; design: method as in PMID 33093447; conditions: KINOMEscan; cited from earlier work
hERG = conditions: preclinical testing; cited from earlier work
[8] = cited from earlier work
[9] = tested on: hematologic and lymphoma cell lines; design: method as in PMID 33093447; conditions: tissue culture; cited from earlier work
[10] = tested on: human cancers grown in immunodeficient mice; conditions: cited from earlier work
[11] = tested on: Bruton tyrosine kinase (BTK); design: method as in PMID 33093447; conditions: models of human lymphoma; cited from earlier work
Lyn [12] = tested on: Lyn; design: method as in PMID 33093447; conditions: multiple Burkitt Lymphoma and Diffuse Large B cell lymphoma cell lines; cited from earlier work
HGAL [13] = tested on: HGAL; design: method as in PMID 33093447; conditions: multiple Burkitt Lymphoma and Diffuse Large B cell lymphoma cell lines; cited from earlier work
[14] = 20 mg oral, Day 1 single dose, plasma
[15] = 20 mg daily, 28 days, all populations

Cc1c(NS(=O)(=O)c2c(Cl)cc(-c3ccnc(N4CCNCC4)c3)cc2Cl)c(CC(C)C)nn1C [PCLX-001, 2,6-dichloro-N-(3-isobutyl-1,5-dimethyl-1H-pyrazol-4-yl)-4-(2-(piperazin-1-yl)pyridin-4-yl)benzenesulfonamide]
AUC(0-inf) ([1]; human, plasma, po, 20 mg, 20 mg oral daily, Day 15, plasma, read-out: Day 15 AUC0–∞): 2640 ng·h/mL
Cmax ([1]; human, plasma, po, 20 mg, 20 mg oral, Day 1 single dose, plasma, read-out: Cmax): 278 ng/mL
AUC(0-inf) ([1]; human, plasma, po, 20 mg, 20 mg oral, first dose (Day 1), plasma, read-out: AUC0–∞): 2360 ng·h/mL
half-life ([1]; human, plasma, po, 20 mg, 20 mg oral, single dose, read-out: T ½ (apparent terminal half-life) (converted)): 16 h
MRT ([1]; human, plasma, 20 mg oral, single dose): 18.6 h
Tmax ([1]; human, 20 mg oral, Day 1 single dose, plasma): 1.1 h
Day 22 pre-dose plasma concentration ([1]; 20 mg oral daily, Day 22 pre-dose (trough)): 51.4 ng/mL
drug accumulation in plasma after repeated daily dosing ([1]; 20 mg oral daily, first dose AUC vs day 15 AUC): without systemic accumulation of drug by day 15; also recorded: no evidence of drug accumulation
AUC0-tlast [1, 14]: 1701.33 ng·h/mL
Cmax [1, 14]: 278.23 ng/mL
AUMC ([1]; 20 mg oral, single dose): 43,883.76 ng/mL.h^2
CLoral ([1]; 20 mg oral, single dose): 8.4 L/h
T ½ (apparent terminal half-life) ([1]; 20 mg oral, single dose): 16.42 h
Vdss ([1]; 20 mg oral, single dose): 156.49 L
effect on live T cell, B cell and monocyte populations ([2]; 28 days of PCLX-001 treatment, 20 mg daily): only marginally affected
CD19+ B cells, % of population ± CV, Day 28 ([2]; live PBMC, 28 days of 20 mg daily, untreated: Screening 0.71, Day 1 1.18): 0.59 ± 0.50%
CD14+ monocytes, % of population ± CV, Day 28 ([2]; live PBMC, 28 days of 20 mg daily, untreated: Screening 5.01, Day 1 14.2): 4.51 ± 0.42%
CD8+ T cells, % of population ± CV, Day 28 ([2]; live PBMC, 28 days of 20 mg daily, untreated: Screening 25.1, Day 1 23.1): 22.5 ± 0.31%
CD4+ T cells, % of population ± CV, Day 28 ([2]; live PBMC, 28 days of 20 mg daily, untreated: Screening 40.2, Day 1 42.5): 46.8 ± 0.22%
Total T cells (CD3+), % of population ± CV, Day 28 ([2]; live PBMC, 28 days of 20 mg daily, untreated: Screening 66.6, Day 1 66.7): 70.1 ± 0.50%
change of HGAL protein level in circulating blood mononuclear cells (HGAL [3]; [15]): no clear change; also recorded: no apparent trend
HGAL intracellular level, % of population ± CV, Day 28 (HGAL [3]; CD4+ T cells, untreated: Screening 12.7, Day 1 22.1): 8.6 ± 0.58%
HGAL intracellular level, % of population ± CV, Day 28 (HGAL [3]; CD8+ T cells, untreated: Screening 25, Day 1 30.3): 17 ± 0.63%
HGAL intracellular level, % of population ± CV, Day 28 (HGAL [3]; CD14+ Monocytes, untreated: Screening 83.9, Day 1 87.5): 88.3 ± 0.64%
HGAL intracellular level, % of population ± CV, Day 28 (HGAL [3]; CD19+ B cells, untreated: Screening 2.44, Day 1 11.2): 8.33 ± 0.39%
change of HGAL expression in CD14+ monocytes (HGAL [3]; after 28 days of treatment): did not decrease
change of Lyn protein level in circulating blood mononuclear cells (Lyn [4]; [15]): no clear change; also recorded: no apparent trend; also recorded: no significant decrease
Lyn intracellular level, % of population ± CV, Day 28 (Lyn [4]; CD4+ T cells, untreated: Screening 13.7, Day 1 20): 28.7 ± 0.37%
Lyn intracellular level, % of population ± CV, Day 28 (Lyn [4]; CD8+ T cells, untreated: Screening 17.6, Day 1 25.8): 33.3 ± 0.31%
Lyn intracellular level, % of population ± CV, Day 28 (Lyn [4]; CD14+ Monocytes, untreated: Screening 51.4, Day 1 40.5): 66.6 ± 0.59%
Lyn intracellular level, % of population ± CV, Day 28 (Lyn [4]; CD19+ B cells, untreated: Screening 8.33, Day 1 12.4): 12.1 ± 0.15%
change of NMT2 protein level in circulating blood mononuclear cells (NMT2; 20 mg daily, 28 days, all cell populations with the exception of monocytes): no clear change; also recorded: very stable
NMT2 intracellular level, % of population ± CV, Day 28 (NMT2; CD4+ T cells, untreated: Screening 22.8, Day 1 25.7): 35.3 ± 0.36%
NMT2 intracellular level, % of population ± CV, Day 28 (NMT2; CD8+ T cells, untreated: Screening 11, Day 1 12.7): 18.7 ± 0.33%
NMT2 intracellular level, % of population ± CV, Day 28 (NMT2; CD14+ Monocytes, untreated: Screening 6.21, Day 1 6.7): 11.7 ± 0.17%
NMT2 intracellular level, % of population ± CV, Day 28 (NMT2; CD19+ B cells, untreated: Screening 31.8, Day 1 29): 33.3 ± 0.24%
change of NMT2 protein level in monocytes (NMT2; end of the first cycle): increased
dose-limiting toxicities ([5]; 28-day cycle): did not experience any dose-limiting toxicities; also recorded: no protocol-defined dose-limiting toxicities
hematopoietic profile and biochemistry ([5]; throughout the trial): remained normal; also recorded: no evidence of toxicity to hematopoietic function, liver function, or kidney function
response of lymphoma (Lugano classification criteria) [6]: disease progression; also recorded: progression of the volume of lymphoma
oral bioavailability [7]: complete oral bioavailability
off-target kinase inhibition (kinase): no significant off-target kinase inhibition
hERG interaction (hERG): no significant hERG interaction
cardiac conduction ([8]; animal non-clinical safety testing): no cardiac conduction issues
dose-limiting toxicity in GLP non-clinical safety testing [8]: diarrhea was dose-limiting
inhibition of hematologic and lymphoma cell lines [9]: markedly inhibits
response in solid cancers [10]: tumour responses
response of human cancers grown in immunodeficient mice [10]: complete remissions
BTK modification and downstream signaling [11]: profoundly inhibited
Lyn protein level in vitro (Lyn [12]): significantly decreased
HGAL protein level in vitro (HGAL [13]): significantly decreased
